Reference: article PMC12727973, “Off-target autophagy disruption associated with a novel liver toxicity in dogs for a highly basic heterobifunctional protein degrader” (Frontiers in Pharmacology, 2025)

What was measured:
[1] = tested on: primary human cholangiocytes; assay: Co-treatment with V-ATPase inhibitor bafilomycin in cholangiocytes
[2] = tested on: LC3B; assay: LC3B lipidation immunoblot in primary cholangiocytes; format: cell-based, human; details: 3 h, 300 μM
Procedure: Cells were treated with compounds at concentrations indicated for 3 h (immunoblotting), 18 h (proteomics), or 48 h (compound uptake) using DMSO vehicle content normalized across wells, up to 0.2%. 48 h was selected for compound uptake experiments to match the cell viability assay conditions; 18 h was selected for the initial assessment of proteome-wide changes leading to and accompanying cytotoxicity; 3 h to observe pathway changes with minimal confounding effects of cytotoxicity. […] Following compound incubation, cells were washed twice with phosphate buffer saline (PBS) and, except for compound uptake studies, lifted off plates with Accumax (Sigma-Aldrich A7089). Cells were pelleted at 700 × g for 5 min, washed with PBS, and pellets were stored at −80 °C for later sample preparation.
Lysate corresponding to 20 µg protein was combined with LDS Buffer (1X final, Thermo #NP0007) and 1 M dithiothreitol stock (100 mM final), heat denatured at 95 °C for 10 min, and loaded into the wells of a NuPage Bis-Tris Mini Protein Gel (Thermo #NP0321). Proteins were separated at 200 V for 30–40 min using a XCell SureLock Mini-Cell (Thermo #EI0001) and MES SDS Running Buffer (Thermo #NP0002).
Proteins were next transferred to a PVDF membrane (Thermo #IB24002) with an iBlot 2 Gel Transfer Device (Invitrogen #IB21001) using the standard 7 min method. […]

Question: For CO/C1=C\C(C)=C\[C@@H](C)[C@@H](O)[C@@H](C)C/C(C)=C/C=C/[C@H](OC)[C@@H]([C@@H](C)[C@@H](O)[C@H](C)[C@@]2(O)C[C@@H](O)[C@H](C)[C@@H](C(C)C)O2)OC1=O [BafA1, Bafilomycin A1], which Cytotoxicity alone ([1]; BafA1 alone, longer timepoints) is on record?
Answer: cytotoxic at longer timepoints

Question: And the “Effect on Compound X-induced cytotoxicity” value ([1]; co-treatment with Compound X, <24 h)?
Answer: fully rescued compound-induced cytotoxicity

Question: And the “Effect on LC3B lipidation by Compound X” value ([1]; co-treatment, 100 nM or 2.5 nM BafA1, 3 h)?
Answer: reduced the LC3B lipidation by Compound X

Question: CCN(CC)CCCC(C)Nc1ccnc2cc(Cl)ccc12 (stereo not shown) [CQ, chloroquine diphosphate] was tested. Which LC3B-II/LC3B-I [2] did it give?
Answer: 2.1
